Source: the kinase profiling compilation of Christmann-Franck et al. (2016)

Tests used:
Assay in all cases: KINOMEscan competition binding
Conditions in all cases: compound 10.0 µM
[1] = molecular target: ABL2 (human) (UniProt P42684)
[2] = molecular target: ADCK3 (human) (UniProt Q8NI60)
[3] = molecular target: AURKA (human) (UniProt O14965)
[4] = molecular target: CDK14 (human) (UniProt O94921)
[5] = molecular target: CDK19 (human) (UniProt Q9BWU1)
[6] = molecular target: CHEK1 (human) (UniProt O14757)
[7] = molecular target: CSNK2A2 (human) (UniProt P19784)
[8] = molecular target: DAPK1 (human) (UniProt P53355)
[9] = molecular target: DCLK3 (human) (UniProt Q9C098)
[10] = molecular target: EPHA2 (human) (UniProt P29317)
[11] = molecular target: EPHB3 (human) (UniProt P54753)
[12] = system: FGFR3 (human), P22607 [G697C]
[13] = molecular target: FRK (human) (UniProt P42685)
[14] = molecular target: INSR (human) (UniProt P06213)
[15] = molecular target: JAK1 JH2 pseudokinase (human) (UniProt P23458)
[16] = molecular target: KDR (human) (UniProt P35968)
[17] = molecular target: MAPKAPK2 (human) (UniProt P49137)
[18] = molecular target: MARK3 (human) (UniProt P27448)
[19] = molecular target: MARK4 (human) (UniProt Q96L34)
[20] = molecular target: MKNK1 (human) (UniProt Q9BUB5)
[21] = molecular target: NEK1 (human) (UniProt Q96PY6)
[22] = molecular target: PAK7 (human) (UniProt Q9P286)
[23] = molecular target: PHKG1 (human) (UniProt Q16816)
[24] = molecular target: PHKG2 (human) (UniProt P15735)
[25] = molecular target: PKN2 (human) (UniProt Q16513)
[26] = molecular target: PRKD3 (human) (UniProt O94806)
[27] = system: RET (human), P07949 [V804L]
[28] = molecular target: RIOK2 (human) (UniProt Q9BVS4)
[29] = molecular target: RPS6KA2 KD1 (human) (UniProt Q15349)
[30] = molecular target: SLK (human) (UniProt Q9H2G2)
[31] = molecular target: SRPK1 (human) (UniProt Q96SB4)
[32] = molecular target: STK16 (human) (UniProt O75716)
[33] = molecular target: STK4 (human) (UniProt Q13043)
[34] = molecular target: TGFBR2 (human) (UniProt P37173)
[35] = molecular target: TNK2 (human) (UniProt Q07912)
[36] = molecular target: MAP3K15 (human) (UniProt Q6ZN16)
[37] = molecular target: STK39 (human) (UniProt Q9UEW8)

Chain of PHKG2 (human) (P15735 whole entry, looked up): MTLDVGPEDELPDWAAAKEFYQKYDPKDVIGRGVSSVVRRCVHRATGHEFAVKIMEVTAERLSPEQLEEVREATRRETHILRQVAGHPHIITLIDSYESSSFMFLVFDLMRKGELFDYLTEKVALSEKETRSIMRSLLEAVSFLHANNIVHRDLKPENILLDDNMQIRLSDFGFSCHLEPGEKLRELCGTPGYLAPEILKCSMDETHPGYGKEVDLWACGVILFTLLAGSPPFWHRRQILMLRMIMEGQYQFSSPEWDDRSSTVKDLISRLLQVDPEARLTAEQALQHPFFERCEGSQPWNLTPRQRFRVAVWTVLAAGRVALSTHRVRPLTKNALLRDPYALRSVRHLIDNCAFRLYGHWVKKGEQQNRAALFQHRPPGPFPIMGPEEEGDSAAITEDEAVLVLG
Chain of EPHA2 (human) (P29317 whole entry, looked up): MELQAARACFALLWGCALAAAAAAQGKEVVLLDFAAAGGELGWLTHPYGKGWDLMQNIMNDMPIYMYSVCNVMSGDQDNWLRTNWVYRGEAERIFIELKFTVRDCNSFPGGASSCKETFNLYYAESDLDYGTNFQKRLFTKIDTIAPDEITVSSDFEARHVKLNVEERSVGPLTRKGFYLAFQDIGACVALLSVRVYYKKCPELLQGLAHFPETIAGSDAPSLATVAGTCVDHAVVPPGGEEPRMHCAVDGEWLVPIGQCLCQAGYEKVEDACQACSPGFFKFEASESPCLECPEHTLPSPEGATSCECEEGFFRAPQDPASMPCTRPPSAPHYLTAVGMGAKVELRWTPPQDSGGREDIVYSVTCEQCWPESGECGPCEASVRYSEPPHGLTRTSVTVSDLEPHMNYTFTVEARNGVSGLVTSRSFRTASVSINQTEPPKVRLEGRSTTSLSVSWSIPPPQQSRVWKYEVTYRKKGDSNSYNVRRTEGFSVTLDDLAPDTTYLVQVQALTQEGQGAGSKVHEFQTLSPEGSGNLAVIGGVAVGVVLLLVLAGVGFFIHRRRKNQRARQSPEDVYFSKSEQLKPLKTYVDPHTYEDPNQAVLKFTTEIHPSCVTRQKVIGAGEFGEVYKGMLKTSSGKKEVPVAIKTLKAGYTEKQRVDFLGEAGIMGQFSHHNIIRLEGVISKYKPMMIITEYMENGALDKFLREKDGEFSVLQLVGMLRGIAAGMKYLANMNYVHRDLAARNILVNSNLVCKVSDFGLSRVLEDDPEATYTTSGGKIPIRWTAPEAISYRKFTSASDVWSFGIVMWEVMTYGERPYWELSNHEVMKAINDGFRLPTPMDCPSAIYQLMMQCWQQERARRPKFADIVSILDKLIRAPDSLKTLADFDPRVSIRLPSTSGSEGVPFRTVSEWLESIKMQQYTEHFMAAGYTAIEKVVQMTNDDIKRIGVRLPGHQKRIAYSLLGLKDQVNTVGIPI
Chain of FRK (human) (P42685 whole entry, looked up): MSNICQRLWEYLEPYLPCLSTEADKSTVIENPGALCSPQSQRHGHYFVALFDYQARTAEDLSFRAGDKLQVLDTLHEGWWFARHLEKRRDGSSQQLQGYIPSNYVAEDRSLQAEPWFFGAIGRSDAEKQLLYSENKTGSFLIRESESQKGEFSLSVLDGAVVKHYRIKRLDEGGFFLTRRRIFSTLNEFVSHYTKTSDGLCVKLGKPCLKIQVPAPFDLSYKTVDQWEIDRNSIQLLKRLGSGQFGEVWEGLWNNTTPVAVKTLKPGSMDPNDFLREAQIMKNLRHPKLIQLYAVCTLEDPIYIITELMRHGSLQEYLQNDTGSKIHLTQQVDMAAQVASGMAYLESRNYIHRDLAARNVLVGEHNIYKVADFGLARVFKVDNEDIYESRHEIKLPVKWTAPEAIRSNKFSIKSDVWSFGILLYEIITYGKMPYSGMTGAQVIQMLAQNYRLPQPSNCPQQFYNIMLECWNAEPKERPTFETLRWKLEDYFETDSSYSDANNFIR
Chain of MKNK1 (human) (Q9BUB5 whole entry, looked up): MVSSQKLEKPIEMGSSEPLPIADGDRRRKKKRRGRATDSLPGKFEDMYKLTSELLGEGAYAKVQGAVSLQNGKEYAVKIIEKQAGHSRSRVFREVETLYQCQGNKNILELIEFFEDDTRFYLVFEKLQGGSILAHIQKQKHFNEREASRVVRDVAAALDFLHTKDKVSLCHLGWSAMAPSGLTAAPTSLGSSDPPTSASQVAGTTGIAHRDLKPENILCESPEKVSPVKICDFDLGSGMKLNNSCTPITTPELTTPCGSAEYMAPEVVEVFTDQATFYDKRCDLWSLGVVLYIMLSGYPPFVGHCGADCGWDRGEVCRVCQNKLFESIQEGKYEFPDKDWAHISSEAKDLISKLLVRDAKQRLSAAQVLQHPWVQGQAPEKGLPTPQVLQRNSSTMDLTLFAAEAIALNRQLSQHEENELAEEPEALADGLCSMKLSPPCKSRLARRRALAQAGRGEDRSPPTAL
Chain of CDK19 (human) (Q9BWU1 whole entry, looked up): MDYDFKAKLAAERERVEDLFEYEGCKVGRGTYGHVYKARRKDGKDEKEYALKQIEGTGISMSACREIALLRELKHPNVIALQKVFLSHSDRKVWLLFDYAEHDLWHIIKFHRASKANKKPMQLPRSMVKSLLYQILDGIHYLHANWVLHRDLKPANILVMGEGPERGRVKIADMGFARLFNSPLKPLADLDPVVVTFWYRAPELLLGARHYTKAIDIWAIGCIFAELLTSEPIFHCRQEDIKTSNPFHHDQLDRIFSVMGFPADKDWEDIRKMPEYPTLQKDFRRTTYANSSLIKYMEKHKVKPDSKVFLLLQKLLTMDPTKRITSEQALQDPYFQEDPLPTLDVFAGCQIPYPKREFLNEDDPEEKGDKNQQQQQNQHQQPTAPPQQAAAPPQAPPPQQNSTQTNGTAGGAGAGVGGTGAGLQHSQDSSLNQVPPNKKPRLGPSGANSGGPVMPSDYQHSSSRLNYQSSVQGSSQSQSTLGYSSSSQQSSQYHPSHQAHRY
Chain of DCLK3 (human) (Q9C098 whole entry, looked up): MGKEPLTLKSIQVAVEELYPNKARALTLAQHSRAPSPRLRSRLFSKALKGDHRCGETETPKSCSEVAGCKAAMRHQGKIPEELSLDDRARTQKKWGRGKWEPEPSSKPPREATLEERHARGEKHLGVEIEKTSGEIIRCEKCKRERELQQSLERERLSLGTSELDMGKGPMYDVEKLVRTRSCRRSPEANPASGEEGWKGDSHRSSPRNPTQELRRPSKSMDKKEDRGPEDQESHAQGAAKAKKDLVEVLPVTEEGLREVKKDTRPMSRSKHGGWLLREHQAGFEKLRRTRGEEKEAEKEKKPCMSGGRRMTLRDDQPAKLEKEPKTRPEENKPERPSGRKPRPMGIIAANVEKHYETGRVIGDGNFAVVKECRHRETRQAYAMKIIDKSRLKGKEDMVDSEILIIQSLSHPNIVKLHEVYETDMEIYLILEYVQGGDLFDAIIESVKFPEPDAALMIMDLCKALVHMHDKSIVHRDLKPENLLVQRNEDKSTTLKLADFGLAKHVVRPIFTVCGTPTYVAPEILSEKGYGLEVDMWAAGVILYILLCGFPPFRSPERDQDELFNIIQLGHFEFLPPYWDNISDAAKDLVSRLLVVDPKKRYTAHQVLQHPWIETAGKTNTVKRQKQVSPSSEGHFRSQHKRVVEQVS
Chain of RET (human), P07949 [V804L] (P07949 whole entry V804L, looked up): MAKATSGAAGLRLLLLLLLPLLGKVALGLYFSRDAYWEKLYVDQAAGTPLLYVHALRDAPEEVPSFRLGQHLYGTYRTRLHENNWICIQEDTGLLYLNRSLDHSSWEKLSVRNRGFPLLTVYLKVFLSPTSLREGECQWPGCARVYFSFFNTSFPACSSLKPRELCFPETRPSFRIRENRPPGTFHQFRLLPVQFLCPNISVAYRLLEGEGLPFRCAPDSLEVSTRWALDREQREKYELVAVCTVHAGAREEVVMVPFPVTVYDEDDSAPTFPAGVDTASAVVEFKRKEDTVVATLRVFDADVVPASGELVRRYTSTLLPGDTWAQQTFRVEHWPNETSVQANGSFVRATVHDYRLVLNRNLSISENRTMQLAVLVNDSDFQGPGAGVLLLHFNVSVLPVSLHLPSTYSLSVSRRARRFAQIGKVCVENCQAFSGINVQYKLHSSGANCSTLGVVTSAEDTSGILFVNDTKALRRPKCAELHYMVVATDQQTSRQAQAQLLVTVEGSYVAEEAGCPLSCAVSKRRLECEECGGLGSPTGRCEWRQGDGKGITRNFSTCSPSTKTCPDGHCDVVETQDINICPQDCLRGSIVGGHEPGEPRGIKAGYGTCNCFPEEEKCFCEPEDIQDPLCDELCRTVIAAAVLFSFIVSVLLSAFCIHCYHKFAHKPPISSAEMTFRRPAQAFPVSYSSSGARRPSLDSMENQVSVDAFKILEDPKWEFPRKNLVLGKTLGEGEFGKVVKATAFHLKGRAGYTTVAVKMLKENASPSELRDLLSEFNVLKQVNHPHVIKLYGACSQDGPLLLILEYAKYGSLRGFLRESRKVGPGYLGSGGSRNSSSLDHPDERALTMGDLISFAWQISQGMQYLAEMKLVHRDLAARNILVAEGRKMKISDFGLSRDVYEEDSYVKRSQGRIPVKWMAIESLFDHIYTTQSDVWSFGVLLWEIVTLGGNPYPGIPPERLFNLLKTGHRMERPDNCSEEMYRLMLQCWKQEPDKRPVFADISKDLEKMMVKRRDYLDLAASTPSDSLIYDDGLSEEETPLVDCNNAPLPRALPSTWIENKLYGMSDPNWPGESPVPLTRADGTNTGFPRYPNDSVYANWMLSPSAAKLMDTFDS
Chain of STK16 (human) (O75716 whole entry, looked up): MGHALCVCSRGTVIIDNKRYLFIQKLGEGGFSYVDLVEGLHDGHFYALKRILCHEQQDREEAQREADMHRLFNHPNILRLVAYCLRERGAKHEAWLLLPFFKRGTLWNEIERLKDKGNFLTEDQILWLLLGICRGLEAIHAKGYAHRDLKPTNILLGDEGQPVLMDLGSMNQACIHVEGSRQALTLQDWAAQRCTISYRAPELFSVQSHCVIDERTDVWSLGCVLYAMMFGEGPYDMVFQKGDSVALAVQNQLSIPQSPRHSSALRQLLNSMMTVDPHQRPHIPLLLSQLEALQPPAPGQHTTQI

Row | kinase still bound, per cent of control [1] [%] | kinase still bound, per cent of control [2] [%] | kinase still bound, per cent of control [3] [%] | kinase still bound, per cent of control [4] [%] | kinase still bound, per cent of control [5] [%] | kinase still bound, per cent of control [6] [%] | kinase still bound, per cent of control [7] [%] | kinase still bound, per cent of control [8] [%] | kinase still bound, per cent of control [9] [%] | kinase still bound, per cent of control [10] [%] | kinase still bound, per cent of control [11] [%] | kinase still bound, per cent of control [12] [%] | kinase still bound, per cent of control [13] [%] | kinase still bound, per cent of control [14] [%] | kinase still bound, per cent of control [15] [%] | kinase still bound, per cent of control [16] [%] | kinase still bound, per cent of control [17] [%] | kinase still bound, per cent of control [18] [%] | kinase still bound, per cent of control [19] [%] | kinase still bound, per cent of control [20] [%] | SMILES | also measured
1 | 100 | 0.1 | 100 | 100 | 100 | 100 | 100 | 100 | 100 | 100 | 100 | 100 | 6.6 | 0.05 | 100 | 100 | 100 | 100 | 100 | 100 | COc1cc(N2CCC(C(N)=O)CC2)ccc1Nc1nc(N)c(Cl)c(Nc2ccccc2S(=O)(=O)C(C)C)n1 | kinase still bound, per cent of control [21]: 100%; kinase still bound, per cent of control [22]: 100%; kinase still bound, per cent of control [23]: 12%; kinase still bound, per cent of control [24]: 13%; kinase still bound, per cent of control [25]: 100%; kinase still bound, per cent of control [26]: 100%; kinase still bound, per cent of control [27]: 100%; kinase still bound, per cent of control [28]: 100%; kinase still bound, per cent of control [29]: 100%; kinase still bound, per cent of control [30]: 2.6%; kinase still bound, per cent of control [31]: 100%; kinase still bound, per cent of control [32]: 100%; kinase still bound, per cent of control [33]: 100%; kinase still bound, per cent of control [34]: 100%; kinase still bound, per cent of control [35]: 0.2%
2 | 100 | 100 | 100 | 100 | 100 | 100 | 100 | 100 | 100 | 100 | 100 | 100 | 100 | 100 | 100 | 100 | 100 | 100 | 100 | 100 | CCOc1cc(N2CCC(O)CC2)ccc1Nc1ncc2c(n1)N(C)c1ccccc1C(=O)N2C | kinase still bound, per cent of control [36]: 100%; kinase still bound, per cent of control [21]: 100%; kinase still bound, per cent of control [22]: 100%; kinase still bound, per cent of control [23]: 100%; kinase still bound, per cent of control [24]: 100%; kinase still bound, per cent of control [25]: 100%; kinase still bound, per cent of control [26]: 100%; kinase still bound, per cent of control [27]: 100%; kinase still bound, per cent of control [28]: 100%; kinase still bound, per cent of control [29]: 100%; kinase still bound, per cent of control [30]: 100%; kinase still bound, per cent of control [31]: 100%; kinase still bound, per cent of control [32]: 100%; kinase still bound, per cent of control [37]: 100%; kinase still bound, per cent of control [33]: 100%; kinase still bound, per cent of control [34]: 100%; kinase still bound, per cent of control [35]: 17%
3 | 100 | 100 | 100 | 100 | 100 | 100 | 100 | 100 | 4.2 | 25 | 100 | 100 | 100 | 5.1 | 100 | 100 | 100 | 100 | 100 | 100 | COc1cc(C)c(Sc2cnc(NC(=O)c3ccc(CNC(C)C(C)C)cc3)s2)cc1C(=O)N1CCN(C(C)=O)CC1 (stereo not given) | kinase still bound, per cent of control [21]: 100%; kinase still bound, per cent of control [22]: 100%; kinase still bound, per cent of control [23]: 100%; kinase still bound, per cent of control [24]: 11%; kinase still bound, per cent of control [25]: 100%; kinase still bound, per cent of control [26]: 100%; kinase still bound, per cent of control [27]: 100%; kinase still bound, per cent of control [28]: 100%; kinase still bound, per cent of control [29]: 100%; kinase still bound, per cent of control [30]: 31%; kinase still bound, per cent of control [31]: 100%; kinase still bound, per cent of control [32]: 100%; kinase still bound, per cent of control [33]: 100%; kinase still bound, per cent of control [34]: 100%; kinase still bound, per cent of control [35]: 100%
4 | 0.35 | 100 | 100 | 100 | 100 | 100 | 100 | 100 | 100 | 4.2 | 0 | 8.6 | 0.4 | 100 | 100 | 4.5 | 100 | 100 | 100 | 100 | COc1ccc(N(C(=O)Oc2cc(C(=O)Nc3cccc(C(F)(F)F)c3)ccc2C)c2ccnc(Nc3ccc(N4CCN(C)CC4)cc3)n2)c(OC)c1 | kinase still bound, per cent of control [21]: 100%; kinase still bound, per cent of control [22]: 100%; kinase still bound, per cent of control [23]: 100%; kinase still bound, per cent of control [24]: 100%; kinase still bound, per cent of control [25]: 100%; kinase still bound, per cent of control [26]: 100%; kinase still bound, per cent of control [29]: 100%; kinase still bound, per cent of control [30]: 0.15%; kinase still bound, per cent of control [31]: 100%; kinase still bound, per cent of control [32]: 100%; kinase still bound, per cent of control [33]: 100%; kinase still bound, per cent of control [34]: 100%; kinase still bound, per cent of control [35]: 4%
